Results published in the NIST ThermoML archive (doi:10.1016/j.jct.2016.03.026).

Test: xn = mol fraction of the nth substance listed
Details: 273.15 K, Fluid (supercritical or subcritical phases), x1 = 0.97; for mass density: Vibrating tube method

O=C=O [carbon dioxide] + CO
Details	mass density [kg/m3]
14050 kPa	992.7
14075 kPa	992.85
14100 kPa	992.93
14125 kPa	993.06
14150 kPa	993.17
14175 kPa	993.26
14200 kPa	993.38
14225 kPa	993.5
14250 kPa	993.58
14275 kPa	993.7
14300 kPa	993.82
14325 kPa	993.9
14350 kPa	994
14375 kPa	994.12
14400 kPa	994.23
14425 kPa	994.35
14450 kPa	994.42
14475 kPa	994.54
14500 kPa	994.65
14525 kPa	994.75
14550 kPa	994.85
14575 kPa	994.96
14600 kPa	995.07
14625 kPa	995.18
14650 kPa	995.29
14675 kPa	995.37
14700 kPa	995.5
14725 kPa	995.62
14750 kPa	995.7
14775 kPa	995.81
14800 kPa	995.94
14825 kPa	996.02
14850 kPa	996.12
14875 kPa	996.27
14900 kPa	996.34
14925 kPa	996.43
14950 kPa	996.51
14975 kPa	996.65
15000 kPa	996.75
15025 kPa	996.84
15050 kPa	996.94
15075 kPa	997.08
15100 kPa	997.16
15125 kPa	997.24
15150 kPa	997.37
15175 kPa	997.49
15200 kPa	997.57
15225 kPa	997.66
15250 kPa	997.8
15275 kPa	997.89
15300 kPa	997.98
15325 kPa	998.14
15350 kPa	998.19
15375 kPa	998.3
15400 kPa	998.38
15425 kPa	998.5
15450 kPa	998.63
15475 kPa	998.71
15500 kPa	998.79
15525 kPa	998.89
15550 kPa	999.03
15575 kPa	999.11
15600 kPa	999.22
15625 kPa	999.34
15650 kPa	999.41
15675 kPa	999.52
15700 kPa	999.63
15725 kPa	999.76
15750 kPa	999.85
15775 kPa	999.93
15800 kPa	1000.03
15825 kPa	1000.09
15850 kPa	1000.25
15875 kPa	1000.33
15900 kPa	1000.44
15925 kPa	1000.5
15950 kPa	1000.59
15975 kPa	1000.74
16000 kPa	1000.82
16025 kPa	1000.92
16050 kPa	1001.03
16075 kPa	1001.14
16100 kPa	1001.23
16125 kPa	1001.34
16150 kPa	1001.44
16175 kPa	1001.55
16200 kPa	1001.64
16225 kPa	1001.73
16250 kPa	1001.84
16275 kPa	1001.95
16300 kPa	1002.05
16325 kPa	1002.16
16350 kPa	1002.26
16375 kPa	1002.35
16400 kPa	1002.44
16425 kPa	1002.55
16450 kPa	1002.64
16475 kPa	1002.73
16500 kPa	1002.82
16525 kPa	1002.92
16550 kPa	1003.07
16575 kPa	1003.15
16600 kPa	1003.23
16625 kPa	1003.31
16650 kPa	1003.43
16675 kPa	1003.55
16700 kPa	1003.63
16725 kPa	1003.75
16750 kPa	1003.86
16775 kPa	1003.93
16800 kPa	1004.01
16825 kPa	1004.09
16850 kPa	1004.25
16875 kPa	1004.31
16900 kPa	1004.4
16925 kPa	1004.53
16950 kPa	1004.6
16975 kPa	1004.73
17000 kPa	1004.82
17025 kPa	1004.89
17050 kPa	1005.04

Details	speed of sound [m/s]
14900 kPa, Frequency=5 MHz, Pulse-echo method	688.9
